Measured values taken from patent publication EP1484329A1, “Indole derivatives with apoptosis inducing activity” (Zentaris GmbH, priority 2003, dated 2004).
≈ marks a conversion by molar mass, not a printed value. Where two headings read alike, the source gives them in different places.

Assays:
NCI-H460 = assay: XTT proliferation assay, NCI-H460; assay type: cell-based; settings: Homo sapiens, read-out: XTT Proliferationsassay, EC50 NCI-H460
Source text: (§1) Die Substanzen 1,2, 4-6 wurden in einem Proliferationstest an etablierten Tumorzelllinien auf ihre anti-proliferative Aktivität hin untersucht (D.A. Scuderio et al. Cancer Res. 1988, 48, 4827-4833). Der verwendete Test bestimmt die zelluläre Dehydrogenase-Aktivität und ermöglicht eine Bestimmung der Zellvitalität und indirekt der Zellzahl. Bei den verwendeten Zelllinien handelt es sich um die humane Cervixkarzinom Zelllinie KB/HeLa (ATCC CCL17), die ovariale Adenokarzinomzelllinie SKOV-3 (ATCC HTB77), die humane Glioblastom Zelllinie SF-268 (NCI 503138) und die Lungenkarzinom Zelllinie NCI-H460 (NCI 503473). Des weiteren wurde zur Untersuchung der Zellzyklus-spezifischen Wirkung der Substanz ein RKOp27 Zellsystem verwendet (M. Schmidt et al. Oncogene19(20):2423-9, 2000). Bei RKO handelt es sich um eine humane Kolonkarzinomlinie, in der der Zellzyklusinhibitor p27 ^kip1 mittels des Ecdyson Expressionssystems induziert zur Expression gebracht und zu einem Zellzyklusarrest spezifisch in G2 geführt werden kann. Eine unspezifisch wirkende Substanz hemmt die Proliferation unabhängig davon, ob die RKO Zelle in G1 oder G2 arretiert ist oder nicht. Zellzyklus-spezifische Substanzen wie beispielsweise Tubulininhibitoren sind hingegen nur dann zytotoxisch, wenn Zellen nicht arretiert sind und der Zellzyklus durchlaufen wird. In Tabelle 1 ist die zytotoxische bzw. wachstumshemmende Aktivität der beschriebenen Verbindungen mit / ohne Expression von p27^kip1gezeigt. Die getesteten Verbindungen zeigten im induzierten Zustand von p27^kiP1 keine zytotoxische Aktivität. Die Ergebnisse zeigen eine sehr potente Hemmung der Proliferation ausgewählter Tumorzelllinien durch die genannten Substanzen.

A431 = assay: XTT proliferation assay, A431; assay type: cell-based, human; settings: Homo sapiens, read-out: XTT Proliferationsassay, EC50 A431
Source text: as §1, with “Substanzen. Tabelle 1:” for “Substanzen.”
(§2) Zur weiteren Charakterisierung wurden die Substanzen 1-6 an einem Panel von 7 humanen Tumorzelllinien auf ihre anti-proliferative Wirkung hin untersucht. Bei den untersuchten Zelllinien handelt es sich um die humanen Glioma Zelllinien A172 (ATCC CRL-1620) und U118 (ATCC HTB-15), die humane Lungenkarzinom Zelllinie A549, das humane epidermoide Karzinom A431 (ATCC CRL-2592), die humanen Prostatakarzinom Zelllinien DU145 (ATCC HTB-81) und PC3 (ATCC CRL-1435) und die humane Kolon Adenokarzinomzelllinie HT29 (ATCC HTB-38). Es handelt sich hierbei um sehr gut charakterisierte, etablierte Zelllinien, die von ATCC, ECACC bzw. NCI erhalten und in Kultur genommen wurden. Die in Tab. […]

PC3 = assay: XTT proliferation assay, PC3; assay type: cell-based, human; settings: Homo sapiens, read-out: XTT Proliferationsassay, EC50 PC3
Source text: as §1, with “Substanzen. Tabelle 1:” for “Substanzen.”
as §2

A172 = assay: XTT proliferation assay, A172; assay type: cell-based, human; settings: Homo sapiens, read-out: XTT Proliferationsassay, EC50 A172
Source text: as §1, with “Substanzen. Tabelle 1:” for “Substanzen.”
as §2

LT12 = assay: XTT proliferation assay, LT12 (wild type); assay type: cell-based
Source text: as §1, with “Substanzen. Tabelle 1:” for “Substanzen.”
(§3) Zur weiteren Charakterisierung wurden die Substanzen 1,2,4-6 gegenüber multi drug resistenten Zelllinien im Vergleich zu den nicht-resistenten Wildtypzelllinien untersucht.
(§4) Bei den untersuchten Zelllinien handelt es sich um die murine L1210, die akute myeloische Leukaemie Zelllinie LT12 und um die resistenten Linien L1210/mdr und LT12/mdr. Außerdem wurden die murine P388 Zelllinie (methyl-cholanthreneinduced lymphoid neoplasm) sowie die Doxorubicin-resistente P388 als Testsysteme herangezogen.

LT12mdr = assay: XTT proliferation assay, LT12mdr (resistant); assay type: cell-based; settings: read-out: XTT Proliferationsassay, EC50 LT12mdr
Source text: as §1, with “Substanzen. Tabelle 1:” for “Substanzen.”
as §3, §4

KB/HeLa Zellen = assay: Cell cycle analysis (G2/M arrest); assay type: cell-based; settings: Homo sapiens, read-out: EC50 in nM (50% cells in G2/M)
Method: Für die Zellzyklusanalyse wurden KB/HeLa Zellen mit den Testsubstanzen in unterschiedlichen Konzentrationen (0.1-1000 nM) 24 Stunden bei 37°C behandelt.
Der prozentuale Anteil der in der G2/M Phase des Zellzyklus arrettierten Zellen nach Behandlung mit Referenz- oder ausgewählten Testsubstanzen ist in der nachfolgenden Tabelle 5 dargestellt. Die Ergebnisse wurden mit einer speziellen Analysesoftware (ModFit™) ausgewertet.

Topoisomerase II = Topoisomerase II (Homo sapiens, UniProt P11388); assay: pRYG relaxation assay for topoisomerase II activity; assay type: biochemical; settings: tested at 100, 31.6 and 10 µM
Method: Mit diesem Relaxationsassay konnte zusätzlich die inhibitorische Eigenschaft der erfindungsgemäßen Verbindungen auf Topoisomerase II gezeigt werden. Die Testung der erfindungsgemäßen Verbindungen 2 und 4 erfolgte hierbei bei drei unterschiedlichen Konzentrationen (100, 31.6 und 10 µM). Zum Vergleich setzte man die Referenzverbindung m-Amsacrin bei einer Konzentration von 100µM ein.
Zu 1µL vorgelegter Testsubstanz (20fach konzentriert in 100% DMSO) werden 2µL 10x Assay Puffer, 0,5µL pRYG DNA (125ng), 0,5µL human Topoisomerase II (1 unit) und 16µL H2O pipettiert und gemischt. Die Reaktionsansätze werden in den auf 37°C vorgeheizten Heizblock gestellt und 30min bei 37°C inkubiert. Die Inkubation wird nach Zugabe von 4µL 5x Stop Puffer abgestoppt. Danach werden 10µL des Ansatzes auf ein 1,2% Agarosegel mit 0,25µg/mL Ethidiumbromid aufgetragen und 2,5h bei 100V aufgetrennt. Zum Schluß wird das Gel unter UV Anregung fotografiert (s. Graph 3). Die Quantifizierung der Inhibierung der pRYG Relaxation erfolgt mit der GeIPro® Analyzer Software (s. Graph 4). [formula] [formula]

Topoisomerase II, sequence (P11388 whole entry): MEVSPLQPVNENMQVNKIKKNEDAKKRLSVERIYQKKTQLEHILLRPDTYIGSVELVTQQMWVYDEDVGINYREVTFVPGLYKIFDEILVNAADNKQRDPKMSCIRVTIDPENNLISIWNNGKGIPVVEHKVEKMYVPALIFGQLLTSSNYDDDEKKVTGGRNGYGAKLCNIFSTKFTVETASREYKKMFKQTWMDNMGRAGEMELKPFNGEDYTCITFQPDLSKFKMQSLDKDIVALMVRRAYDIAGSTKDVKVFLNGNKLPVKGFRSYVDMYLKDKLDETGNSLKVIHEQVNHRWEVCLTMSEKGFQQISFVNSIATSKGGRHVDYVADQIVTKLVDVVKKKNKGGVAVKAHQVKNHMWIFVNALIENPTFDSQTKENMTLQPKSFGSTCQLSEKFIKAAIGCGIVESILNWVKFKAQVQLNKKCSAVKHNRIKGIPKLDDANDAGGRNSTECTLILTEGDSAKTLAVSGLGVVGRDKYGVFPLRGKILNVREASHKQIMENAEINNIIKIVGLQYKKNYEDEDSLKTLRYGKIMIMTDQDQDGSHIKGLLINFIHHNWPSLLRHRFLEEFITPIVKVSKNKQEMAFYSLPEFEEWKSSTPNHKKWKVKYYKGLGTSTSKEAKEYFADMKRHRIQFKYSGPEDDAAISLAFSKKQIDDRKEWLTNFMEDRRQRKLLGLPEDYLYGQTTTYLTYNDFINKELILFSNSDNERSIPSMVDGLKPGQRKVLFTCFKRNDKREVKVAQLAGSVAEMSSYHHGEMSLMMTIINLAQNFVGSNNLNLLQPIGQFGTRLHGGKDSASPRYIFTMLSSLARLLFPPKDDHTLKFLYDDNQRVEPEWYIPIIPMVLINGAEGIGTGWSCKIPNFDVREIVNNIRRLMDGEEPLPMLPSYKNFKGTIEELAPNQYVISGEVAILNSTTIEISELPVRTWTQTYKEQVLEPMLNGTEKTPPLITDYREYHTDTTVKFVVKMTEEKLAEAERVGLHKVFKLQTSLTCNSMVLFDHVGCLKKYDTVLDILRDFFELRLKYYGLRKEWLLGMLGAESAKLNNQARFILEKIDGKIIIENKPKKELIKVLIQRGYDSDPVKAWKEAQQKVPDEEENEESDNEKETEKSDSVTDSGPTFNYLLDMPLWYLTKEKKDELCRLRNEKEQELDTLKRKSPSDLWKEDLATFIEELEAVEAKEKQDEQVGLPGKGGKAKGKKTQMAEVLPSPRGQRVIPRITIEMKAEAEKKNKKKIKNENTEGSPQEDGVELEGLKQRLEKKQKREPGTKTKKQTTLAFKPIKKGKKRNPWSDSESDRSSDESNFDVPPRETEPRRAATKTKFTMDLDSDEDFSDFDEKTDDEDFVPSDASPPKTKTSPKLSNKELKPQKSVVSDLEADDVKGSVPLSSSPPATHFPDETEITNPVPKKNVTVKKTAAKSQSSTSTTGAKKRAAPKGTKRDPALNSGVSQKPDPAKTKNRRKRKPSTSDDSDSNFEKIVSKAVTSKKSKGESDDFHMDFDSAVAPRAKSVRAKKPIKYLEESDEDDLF

Row | SMILES | EC50 (NCI-H460) [µg/mL] | EC50 (A431; A-431, A431) [µg/mL] | EC50 (PC3; PC-3, PC3) [µg/mL] | EC50 (A172; A 172, A172) [µg/mL] | EC50 (LT12; Rattus norvegicus, LT12; read-out: XTT Proliferationsassay, EC50 LT12) [µg/mL] | EC50 (LT12mdr) [µg/mL] | EC50 (KB/HeLa Zellen; KB/HeLa, 24 h at 37°C, 0.1-1000 nM) [nM] | Hemmung der Topoisomerase II (pRYG Relaxationsassay) (Topoisomerase II) | EC50 (A431; A-431) [µg/mL] | EC50 (PC3; PC-3) [µg/mL] | EC50 (A172; A 172) [µg/mL] | EC50 (LT12; Rattus norvegicus, LT12, read-out: XTT Proliferationsassay, EC50 LT12) [µg/mL] | EC50 (KB/HeLa Zellen; HeLa, 24 h) [nM]
1 | O=C(Nc1cnc2nccnc2c1)C(=O)c1cn(Cc2ccc(Cl)cc2)c2ccccc12 [Verbindung 5, 2-[1-(4-Chlor-benzyl)-1H-indol-3-yl]-2-oxo-N-pyrido[2,3-b]pyrazin-7-yl-acetamid] | 0.046 (≈ 0.104 µM) | 0.011 (≈ 0.0249 µM) | 0.03 (≈ 0.0679 µM) | 0.019 (≈ 0.043 µM) | 0.015 (≈ 0.0339 µM) | 0.017 (≈ 0.0385 µM) | 31.9 |  |  |  |  |  | 
2 | O=C(Nc1ccc2ncccc2c1)C(=S)c1cn(Cc2ccc(Cl)cc2)c2ccccc12 [Verbindung 4, 2-[1-(4-Chlorbenzyl)-1 H-indol-3-yl]-N-chinolin-6-yl-2-thioxoacetamid] |  | 0.016 (≈ 0.0351 µM) | 0.027 (≈ 0.0592 µM) | 0.043 (≈ 0.0943 µM) |  |  |  | signifikante Hemmung der Topoisomerase II |  |  |  |  | 
3 | O=C(Nc1ccc2ncccc2c1)C(=O)c1cn(Cc2ccc(Cl)cc2)c2ccccc12 [Verbindung 2, 2-[1-(4-Chlor-benzyl)-1 H-indol-3-yl]-2-oxo-N-chinolin-6-yl-acetamid] | 0.054 (≈ 0.123 µM) |  |  |  |  | 0.063 (≈ 0.143 µM) |  | signifikante Hemmung der Topoisomerase II | 0.014 (≈ 0.0318 µM) | 0.016 (≈ 0.0364 µM) | 0.024 (≈ 0.0546 µM) | 0.044 (≈ 0.1 µM) | 52.3
